*1 amine or outer side, *2 acyl side, *3 side chain or, on linkers, in order; H or OH if unused. Where a SMILES comes first, the peptide text is derived from it. Side-chain parts run from the residue outwards. [ ]: non-standard residue; d: D form. The star is where a group is joined. Cbz = O=C(OCc1ccccc1)*; Dap = NC[C@H](N)C(=O)O; CO = O=C([*:1])[*:2]; NHBn = c1ccc(CN*)cc1; Bz = O=C(c1ccccc1)*
These molecules were tested against T1, α2β1 integrin (Homo sapiens, UniProt P05556+P17301) (assay: Platelet adhesion assay (human platelet adhesion to type I collagen)). Conditions: human platelet adhesion to type I (soluble, monomeric) collagen, static conditions; single donor; read-out: IC50.
T1 construct: endogenous in cells; host or cells: gel-filtered human platelets of a single donor
T1 sequence (P17301 30-1181): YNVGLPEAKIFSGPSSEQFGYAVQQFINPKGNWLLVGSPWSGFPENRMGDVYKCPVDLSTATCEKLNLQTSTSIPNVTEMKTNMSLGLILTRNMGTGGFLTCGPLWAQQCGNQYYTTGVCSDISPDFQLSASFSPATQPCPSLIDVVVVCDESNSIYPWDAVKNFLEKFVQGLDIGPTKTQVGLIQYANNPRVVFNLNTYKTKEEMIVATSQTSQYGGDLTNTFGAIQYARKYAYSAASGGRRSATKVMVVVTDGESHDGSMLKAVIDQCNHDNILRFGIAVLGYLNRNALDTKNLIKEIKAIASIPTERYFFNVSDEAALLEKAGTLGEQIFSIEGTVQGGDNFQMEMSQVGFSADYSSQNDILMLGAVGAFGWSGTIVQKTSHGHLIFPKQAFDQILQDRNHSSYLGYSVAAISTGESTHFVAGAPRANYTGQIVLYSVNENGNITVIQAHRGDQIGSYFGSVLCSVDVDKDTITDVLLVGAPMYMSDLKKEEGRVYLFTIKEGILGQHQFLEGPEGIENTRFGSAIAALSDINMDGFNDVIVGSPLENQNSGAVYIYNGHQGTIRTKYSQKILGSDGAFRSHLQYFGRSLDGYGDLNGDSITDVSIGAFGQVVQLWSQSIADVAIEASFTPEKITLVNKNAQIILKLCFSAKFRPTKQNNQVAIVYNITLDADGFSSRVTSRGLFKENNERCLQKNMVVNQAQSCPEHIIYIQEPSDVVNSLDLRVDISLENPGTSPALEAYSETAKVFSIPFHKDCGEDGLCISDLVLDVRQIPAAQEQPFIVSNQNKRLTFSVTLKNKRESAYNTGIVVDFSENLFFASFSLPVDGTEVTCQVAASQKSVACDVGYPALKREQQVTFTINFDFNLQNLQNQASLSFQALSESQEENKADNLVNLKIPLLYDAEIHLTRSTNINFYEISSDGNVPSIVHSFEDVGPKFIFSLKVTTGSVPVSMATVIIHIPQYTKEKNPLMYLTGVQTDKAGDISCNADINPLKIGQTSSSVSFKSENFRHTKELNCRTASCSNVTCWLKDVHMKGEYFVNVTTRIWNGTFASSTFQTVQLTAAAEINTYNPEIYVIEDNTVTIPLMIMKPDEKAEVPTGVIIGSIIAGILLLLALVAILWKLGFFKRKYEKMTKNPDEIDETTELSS
T1 sequence (P05556 21-798): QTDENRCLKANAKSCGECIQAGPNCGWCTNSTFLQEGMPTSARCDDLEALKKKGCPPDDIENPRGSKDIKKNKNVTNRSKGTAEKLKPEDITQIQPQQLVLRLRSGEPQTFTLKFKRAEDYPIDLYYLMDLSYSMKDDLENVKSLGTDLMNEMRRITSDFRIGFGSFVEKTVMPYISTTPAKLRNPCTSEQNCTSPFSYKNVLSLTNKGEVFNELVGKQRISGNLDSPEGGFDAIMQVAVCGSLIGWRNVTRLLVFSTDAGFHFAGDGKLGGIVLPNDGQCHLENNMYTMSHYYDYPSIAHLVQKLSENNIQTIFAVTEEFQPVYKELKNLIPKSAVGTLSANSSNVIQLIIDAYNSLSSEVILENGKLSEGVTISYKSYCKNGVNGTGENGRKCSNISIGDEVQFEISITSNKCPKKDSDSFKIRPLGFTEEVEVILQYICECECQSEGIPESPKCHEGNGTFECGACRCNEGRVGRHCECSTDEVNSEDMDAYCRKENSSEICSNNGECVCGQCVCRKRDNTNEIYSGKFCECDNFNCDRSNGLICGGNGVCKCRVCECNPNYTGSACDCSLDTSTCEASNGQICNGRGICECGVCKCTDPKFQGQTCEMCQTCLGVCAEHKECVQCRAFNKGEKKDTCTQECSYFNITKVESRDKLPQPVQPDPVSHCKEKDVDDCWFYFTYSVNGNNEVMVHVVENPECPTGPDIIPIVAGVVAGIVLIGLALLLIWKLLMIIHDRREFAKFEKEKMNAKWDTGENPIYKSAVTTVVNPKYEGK
Format: cell-based
Description: The inhibitory strength of the compounds of the present disclosure was analyzed as against platelet adhesion to type I collagen. Ninety-six well flat bottom microtiter plates (Immulon 2, Dynatech Laboratories, Chantilly, Va.) were coated with collagen, purified human fibrinogen, or bovine serum albumin, each dissolved in 50 mM NaHCO3 buffer, pH 8.0, containing 150 mM NaCl as previously described. See Bennett J S, Chan C, Vilaire G, Mousa S A, DeGrado W F. Agonist-Activated αvβ3 on Platelets and Lymphocytes Binds to the Matrix Protein Osteopontin. J Biol Chem. 272, 8137-814) (1997). Unoccupied protein binding sites on the wells were blocked with 5 mg/ml bovine serum albumin dissolved in the same buffer. Human platelets were isolated from blood anticoagulated with 0.1 volume 3.8% sodium citrate by gel-filtration using a 4 mM HEPES buffer, pH 7.4, containing 135 mM NaCl, 2.7 mM KCl, 5.6 mM glucose, 3.3 mM NaH2PO4, 0.35 mg/ml bovine serum albumin and various concentrations of CaCl2 or MgCl2 according to the experiment. One hundred μl aliquots of the gel-filtered platelet suspension containing 1-2×10^8 platelets were added to the protein-coated wells in the absence or presence of a platelet agonist. Following an incubation for 30 min at 37° C. without agitation, the plates were washed 4 times with the Tris-buffered NaCl, containing 2 mM MgCl2, pH 7.4, and the number of adherent platelets measured using the colorimetric assay reported by Bellavite P, Andrioli G, Guzzo P, et al. A colorimetric method for the measurement of platelet adhesion in microtiter plates. Anal Biochem. 216, 444-450 (1994). Briefly, 150 μl of a 0.1 M citrate buffer, pH 5.4, containing 5 mM p-nitrophenyl phosphate and 0.1% Triton X-100 was added to the wells after washing. After an incubation for 60 min at room temperature in the absence of ambient light, color was developed by the addition of 100 μl of 2N NaOH and, using EL800 Universal Microplate Reader (Bio-Tek Instruments, Inc., Winooski, Vt.), read in microtiter plate reader at 405 nm.
The potencies of the compounds of the present disclosure were determined by testing the ability of a range of concentrations of each compound to inhibit human platelet adhesion to soluble collagen under static conditions. Owing to the fact that soluble collagen is a specific ligand for α2β1 integrin, this is an accepted method of assessing α2β1 inhibition on platelets.
IC50 values were determined by using the platelets of a single donor. In cases where multiple assays were performed, the reported results reflect the average IC50 value derived from the separate assays.

| IC50 [µM] | Compound |
| --- | --- |
| 0.143 | O=C(NCc1ccccc1)NC[C@H](NC(=O)[C@@H]1C=CCN1S(=O)(=O)c1ccccc1)C(=O)O (stereo in doubt) [Compound 52, 2-[(1-Benzenesulfonyl-2,5-dihydro-1H-pyrrole-2-carbonyl)-amino]-3-(3-benzyl-ureido)-propionic acid] |
| 2.3 | O=C(NC[C@H](NC(=O)[C@@H]1CCCN1S(=O)(=O)c1ccc([N+](=O)[O-])cc1)C(=O)O)OCc1ccccc1 [Compound 2, 3-Benzyloxycarbonylamino-2-{[1-(4-nitro-benzenesulfonyl)-pyrrolidine-2-carbonyl]-amino}-propionic acid] |
| 2.31 | O=C(NC[C@H](NC(=O)[C@@H]1CCCN1S(=O)(=O)c1ccc([N+](=O)[O-])cc1)C(=O)O)c1ccccc1 [Compound 3, 3-Benzoylamino-2-{[1-(4-nitro-benzenesulfonyl)-pyrrolidine-2-carbony]-amino}-propionic acid] |
| 4.75 | O=C(CCc1ccccc1)NC[C@H](NC(=O)[C@@H]1CCCN1S(=O)(=O)c1ccc([N+](=O)[O-])cc1)C(=O)O [Compound 4, 2-{[1-(4-Nitro-benzenesulfonyl)-pyrrolidine-2-carbonyl]-amino}-3-(3-phenyl-propionylamino)-propionic acid] |
| 0.105 | O=C(NCc1ccccc1)NC[C@H](NC(=O)[C@@H]1CCCN1S(=O)(=O)c1ccc([N+](=O)[O-])cc1)C(=O)O [Compound 5, 3-(3-Benzyl-ureido)-2-{[1-(4-nitro-benzenesulfonyl)-pyrrolidine-2-carbonyl]-amino}-propionic acid] |
| 22.3 | CC(C)(C)OC(=O)CC[C@H](NC(=O)[C@@H]1CCCN1S(=O)(=O)c1ccc([N+](=O)[O-])cc1)C(=O)O [Compound 6, 2-{[1-(4-Nitro-benzenesulfonyl)-pyrrolidine-2-carbonyl]-amino}-pentanedioic acid 5-tert-butyl ester] |
| 0.985 | O=C(NCc1ccccc1Cl)NC[C@H](NC(=O)[C@@H]1CCCN1S(=O)(=O)c1ccc([N+](=O)[O-])cc1)C(=O)O [Compound 7, 3-[3-(2-Chloro-benzyl)-ureido]-2-{[1-(4-nitro-benzenesulfonyl)-pyrrolidine-2-carbonyl]-amino}-propionic acid] |
| 1.62 | O=C(NCc1ccc(Br)cc1)NC[C@H](NC(=O)[C@@H]1CCCN1S(=O)(=O)c1ccc([N+](=O)[O-])cc1)C(=O)O [Compound 8, 3-[3-(4-Bromo-benzyl)-ureido]-2-{[1-(4-nitro-benzenesulfonyl)-pyrrolidine-2-carbonyl]-amino}-propionic acid] |
| 3 | O=C(NC[C@H](NC(=O)[C@@H]1CCCN1S(=O)(=O)c1ccc([N+](=O)[O-])cc1)C(=O)O)Nc1ccccc1 [Compound 9, 2-{[1-(4-Nitro-benzenesulfonyl)-pyrrolidine-2-carbonyl]-amino}-3-(3-phenyl-ureido)-propionic acid] |
| 4.6 | O=C(NC[C@H](NC(=O)[C@@H]1CCCN1S(=O)(=O)c1ccc([N+](=O)[O-])cc1)C(=O)O)Nc1ccc([N+](=O)[O-])cc1 [Compound 10, 2-{[1-(4-Nitro-benzenesulfonyl)-pyrrolidine-2-carbonyl]-amino}-3-[3-(4-nitro-phenyl)-ureido]-propionic acid] |
| 5.06 | O=C(NC[C@H](NC(=O)[C@@H]1CCCN1S(=O)(=O)c1ccc([N+](=O)[O-])cc1)C(=O)O)Nc1ccc(-c2ccccc2)cc1 [Compound 11, 3-(3-Biphenyl-4-yl-ureido)-2-{[1-(4-nitro-benzenesulfonyl)-pyrrolidine-2-carbonyl]-amino}-propionic acid] |
| 0.81 | COc1ccc(CNC(=O)NC[C@H](NC(=O)[C@@H]2CCCN2S(=O)(=O)c2ccc([N+](=O)[O-])cc2)C(=O)O)cc1 [Compound 12, 3-[3-(4-Methoxy-benzyl)-ureido]-2-{[1-(4-nitro-benzenesulfonyl)-pyrrolidine-2-carbonyl]-amino}-propionic acid] |
| 1.5 | COc1ccccc1CNC(=O)NC[C@H](NC(=O)[C@@H]1CCCN1S(=O)(=O)c1ccc([N+](=O)[O-])cc1)C(=O)O [Compound 13, 3-[3-(2-Methoxy-benzyl)-ureido]-2-{[1-(4-nitro-benzenesulfonyl)-pyrrolidine-2-carbonyl]-amino}-propionic acid] |
| 0.79 | COc1cccc(CNC(=O)NC[C@H](NC(=O)[C@@H]2CCCN2S(=O)(=O)c2ccc([N+](=O)[O-])cc2)C(=O)O)c1 [Compound 14, 3-[3-(3-Methoxy-benzyl)-ureido]-2-{[1-(4-nitro-benzenesulfonyl)-pyrrolidine-2-carbonyl]-amino}-propionic acid] |
| 4.1 | O=C(NCc1ccc(-c2ccccc2)cc1)NC[C@H](NC(=O)[C@@H]1CCCN1S(=O)(=O)c1ccc([N+](=O)[O-])cc1)C(=O)O [Compound 15, 3-(3-Biphenyl-4-ylmethyl-ureido)-2-{[1-(4-nitro-benzenesulfonyl)-pyrrolidine-2-carbonyl]-amino}-propionic acid] |
| 3.6 | CCCNC(=O)NC[C@H](NC(=O)[C@@H]1CCCN1S(=O)(=O)c1ccc([N+](=O)[O-])cc1)C(=O)O [Compound 16, 2-{[1-(4-Nitro-benzenesulfonyl)-pyrrolidine-2-carbonyl]-amino}-3-(3-propyl-ureido)-propionic acid] |
| 1.7 | CC(C)(C)NC(=O)NC[C@H](NC(=O)[C@@H]1CCCN1S(=O)(=O)c1ccc([N+](=O)[O-])cc1)C(=O)O [Compound 17, 3-(3-tert-Butyl-ureido)-2-{[1-(4-nitro-benzenesulfonyl)-pyrrolidine-2-carbonyl]-amino}-propionic acid] |
| 0.46 | Nc1ccc(CNC(=O)NC[C@H](NC(=O)[C@@H]2CCCN2S(=O)(=O)c2ccc([N+](=O)[O-])cc2)C(=O)O)cc1 [Compound 19, 3-[3-(4-Amino-benzyl)-ureido]-2-{[1-(4-nitro-benzenesulfonyl)-pyrrolidine-2-carbonyl]-amino}-propionic acid] |
| 0.131 | CC(=O)Nc1ccc(S(=O)(=O)N2CCC[C@H]2C(=O)N[C@@H](CNC(=O)NCc2ccccc2)C(=O)O)cc1 [Compound 21, 2-{[1-(4-Acetylamino-benzenesulfonyl)-pyrrolidine-2-carbonyl]-amino}-3-(3-benzyl-ureido)-propionic acid] |
| 11.7 | O=C(NCc1ccccc1)NC[C@H](NC(=O)[C@@H]1CCCN1S(=O)(=O)Cc1ccccc1)C(=O)O [Compound 22, 3-(3-Benzyl-ureido)-2-[(1-phenylmethanesulfonyl-pyrrolidine-2-carbonyl)-amino]-propionic acid] |
| 28 | O=C(NCc1ccccc1)NC[C@H](NC(=O)[C@@H]1CCCN1C(=O)OCc1ccccc1)C(=O)O [Compound 23, 2-[2-(3-Benzyl-ureido)-1-carboxy-ethylcarbarmoyl]-pyrrolidine-1-carboxylic acid benzyl ester] (Cbz-Pro-[Dap]([CO-NHBn])-OH) |
| 0.287 | O=C(NCc1ccccc1)NC[C@H](NC(=O)[C@@H]1CCCN1S(=O)(=O)c1ccc(-c2ccccc2)cc1)C(=O)O [Compound 24, 3-(3-Benzyl-ureido)-2-{[1-(biphenyl-4-sulfonyl)-pyrrolidine-2-carbonyl]-amino}-propionic acid] |
| 2.03 | Nc1ccc(S(=O)(=O)N2CCC[C@H]2C(=O)N[C@H](CNC(=O)NCc2ccccc2)C(=O)O)cc1 [Compound 25, 2-{[1-(4-Amino-benzenesulfonyl)-pyrrolidine-2-carbonyl]-amino}-3-(3-benzyl-ureido)-propionic acid] |
| 1000 | O=C(NCc1ccccc1)NC[C@H](NC(=O)[C@@H]1CCCN1C(=O)c1ccccc1)C(=O)O [Compound 26, 2-[(1-Benzoyl-pyrrolidine-2-carbonyl)-amino]-3-(3-benzyl-ureido)-propionic acid] (Bz-Pro-[Dap]([CO-NHBn])-OH) |

| Compound | IC50 [µM] |
| --- | --- |
| CC(C)(C)OC(=O)NC[C@H](NC(=O)[C@@H]1CCCN1S(=O)(=O)c1ccc([N+](=O)[O-])cc1)C(=O)O [Compound 1, 3-tert-Butoxycarbonylamino-2-{[1-(4-nitro-benzenesulfonyl)-pyrrolidine-2-carbonyl]-amino}-propionic acid] | 2.62 |
| CC(C)(C)OC(=O)Nc1ccc(CNC(=O)NC[C@H](NC(=O)[C@@H]2CCCN2S(=O)(=O)c2ccc([N+](=O)[O-])cc2)C(=O)O)cc1 [Compound 18, 3-[3-(4-tert-Butoxycarbonylamino-benzyl)-ureido]-2-{[1-(4-nitro-benzenesulfonyl)-pyrrolidine-2-carbonyl]-amino}-propionic acid] | 1.77 |

Source: US8258159B2, “Inhibitors of the α2β1/GPIa-IIa integrin” (The Trustees Of The University Of Pennsylvania, priority 2005, dated 2012)
